Measurements taken from ChEMBL document CHEMBL5096229, “A 1,2,3-Triazole Derivative of Quinazoline Exhibits Antitumor Activity by Tethering RNF168 to SQSTM1/P62” (J Med Chem, 2022).
Activity calls are given as the source filed them. The calls are words filed in the database; no cut-off is given here.

What was measured:
[1] = tested on: HCT-116; test: Cytotoxicity against human HCT-116 cells assessed as reduction in cell viability incubated for 72 hrs by MTS assay; assay type: functional, cell-based; details: HCT-116, 72 h
[2] = tested on: A-375; test: Cytotoxicity against human A-375 cells assessed as reduction in cell viability incubated for 72 hrs by MTS assay; assay type: functional, cell-based; details: A-375, 72 h
[3] = tested on: HeLa; test: Cytotoxicity against human HeLa cells assessed as reduction in cell viability incubated for 72 hrs by MTS assay; assay type: functional, cell-based
[4] = tested on: HepG2; test: Cytotoxicity against human HepG2 cells assessed as reduction in cell viability incubated for 72 hrs by MTS assay; assay type: functional, cell-based; details: HepG2, 72 h
[5] = tested on: MCF7; test: Cytotoxicity against human MCF7 cells assessed as reduction in cell viability incubated for 72 hrs by MTS assay; assay type: functional, cell-based; details: MCF7, 72 h
[6] = tested on: MDA-MB-231; test: Cytotoxicity against human MDA-MB-231 cells assessed as reduction in cell viability incubated for 72 hrs by MTS assay; assay type: functional, cell-based; details: MDA-MB-231, 72 h
[7] = Cytotoxicity against human MCF-10A cells assessed as reduction in cell viability incubated for 72 hrs by MTS assay; assay type: toxicity, cell-based
[8] = tested on: HCT-116; test: Induction of cell cycle arrest in human HCT-116 cells assessed as accumulation at S phase at 1 uM after 24 hrs by propidium iodide-staining based flow cytometry (reference value: 17.17 +/- 0.18%); assay type: functional
[9] = tested on: HCT-116; test: Induction of cell cycle arrest in human HCT-116 cells assessed as accumulation at S phase at 5 uM after 24 hrs by propidium iodide-staining based flow cytometry (reference value: 17.17 +/- 0.18%); assay type: functional
[10] = tested on: U2OS; test: Inhibition of homologous recombinant repair in human U2OS cells assessed as I-SceI induced double […] break pretreated with I-SceI for 36 hrs followed by compound addition and measured after 12 hrs; assay type: functional, cell-based; details: dose 0.625-2.5 µM, DDE = dose-dependent effect
[11] = tested on: U2OS; test: Inhibition of NHEJ-mediated double strand break repair in human U2OS cells pretreated with I-SceI for 36 hrs followed by compound addition and measured after 12 hrs; assay type: functional, cell-based; details: dose 0.625-2.5 µM, DDE = dose-dependent effect
[12] = Half life in BALB/c mouse at 10 mg/kg; assay type: ADME, organism-based; details: in vivo
[13] = Half life in BALB/c mouse at 20 mg/kg; assay type: ADME, organism-based; details: in vivo
[14] = Cmax in BALB/c mouse at 5 mg/kg; assay type: ADME, organism-based; parameters: dose 5 mg/kg; details: in vivo
[15] = Cmax in BALB/c mouse at 20 mg/kg; assay type: ADME, organism-based; parameters: dose 20 mg/kg; details: in vivo
[16] = AUCt in BALB/c mouse at 5 mg/kg; assay type: ADME, organism-based; parameters: dose 5 mg/kg; details: in vivo
[17] = AUCt in BALB/c mouse at 10 mg/kg; assay type: ADME, organism-based; parameters: dose 10 mg/kg; details: in vivo
[18] = Metabolic stability in human liver microsomes assessed as clearance at 0.5 uM by LC-MS analysis; assay type: ADME, Microsome
[19] = Toxicity in BALB/c mouse assessed as animal death at less than 50 mg/kg, ip after 7 days; assay type: organism-based; details: in vivo, 168 h, time 7 day
[20] = Toxicity in BALB/c mouse assessed as maximum tolerable dose; details: in vivo
[21] = Toxicity in BALB/c nude mouse assessed as animal death 12.5 mg/kg, ip after 7 days; assay type: organism-based; details: in vivo, 168 h, time 7 day
[22] = Toxicity in BALB/c nude mouse assessed as diarrhea 12.5 mg/kg, ip after 7 days; assay type: organism-based; details: in vivo, 168 h, time 7 day
[23] = Toxicity in BALB/c nude mouse assessed as maximum tolerable dose; details: in vivo
[24] = tested on: HCT-116; test: Antitumor activity against human HCT-116 cells xenografted with BALB/c nude mouse assessed as tumor growth inhibition at 5 to 10 mg/kg, ip administered every 3 days upto 22 days by H and E staining based assay; assay type: functional, organism-based; details: dose 5-10 mg/kg, time <= 22.0 day
[25] = target: T1, Sequestosome-1 (Homo sapiens, UniProt Q13501); test: Binding affinity to P62 (unknown origin) by MST assay
[26] = target: T1, Sequestosome-1; test: Binding affinity to N-terminal P62 (1 to 335 residues) in human HCT-116 cells lysates; assay type: subcellular; details: filed as activator
[27] = tested on: Bacteria; test: Binding affinity to N-terminal His-tagged bacteria P62; details: filed as activator
[28] = target: T1, Sequestosome-1; test: Binding affinity to N-terminal P62 LB domain (unknown origin) expressed in HEK293T cells; assay type: cell-based; details: filed as activator
[29] = tested on: HCT-116; test: Induction of P62 to RNF168 protein-protein interaction in human HCT-116 cells lysates by co-immunoprecipitation assay; assay type: subcellular
[30] = Induction of P62 to RNF168 protein-protein interaction (unknown origin) by MST assay; parameters: species or system Homo sapiens
[31] = target: E3 ubiquitin-protein ligase RNF168 (Homo sapiens, UniProt Q8IYW5); test: Inhibition of RNF168 activity in human HCT-116 cells assessed as reduction in gamma-H2AX ubiquitination by immunoblotting assay; assay type: cell-based
[32] = tested on: Bacteria; test: Induction of bacteria His-tagged P62 to GST-tagged RNF168 protein-protein interaction assessed as decrease in H2A ubiquitination level
[33] = tested on: HeLa; test: Induction of x-ray sensitivity in human HeLa cells; assay type: functional, cell-based
[34] = target: T2, Androgen receptor (Homo sapiens) (UniProt P10275); test: Inhibition of AR (unknown origin) at 10 uM
T2 sequence (whole entry): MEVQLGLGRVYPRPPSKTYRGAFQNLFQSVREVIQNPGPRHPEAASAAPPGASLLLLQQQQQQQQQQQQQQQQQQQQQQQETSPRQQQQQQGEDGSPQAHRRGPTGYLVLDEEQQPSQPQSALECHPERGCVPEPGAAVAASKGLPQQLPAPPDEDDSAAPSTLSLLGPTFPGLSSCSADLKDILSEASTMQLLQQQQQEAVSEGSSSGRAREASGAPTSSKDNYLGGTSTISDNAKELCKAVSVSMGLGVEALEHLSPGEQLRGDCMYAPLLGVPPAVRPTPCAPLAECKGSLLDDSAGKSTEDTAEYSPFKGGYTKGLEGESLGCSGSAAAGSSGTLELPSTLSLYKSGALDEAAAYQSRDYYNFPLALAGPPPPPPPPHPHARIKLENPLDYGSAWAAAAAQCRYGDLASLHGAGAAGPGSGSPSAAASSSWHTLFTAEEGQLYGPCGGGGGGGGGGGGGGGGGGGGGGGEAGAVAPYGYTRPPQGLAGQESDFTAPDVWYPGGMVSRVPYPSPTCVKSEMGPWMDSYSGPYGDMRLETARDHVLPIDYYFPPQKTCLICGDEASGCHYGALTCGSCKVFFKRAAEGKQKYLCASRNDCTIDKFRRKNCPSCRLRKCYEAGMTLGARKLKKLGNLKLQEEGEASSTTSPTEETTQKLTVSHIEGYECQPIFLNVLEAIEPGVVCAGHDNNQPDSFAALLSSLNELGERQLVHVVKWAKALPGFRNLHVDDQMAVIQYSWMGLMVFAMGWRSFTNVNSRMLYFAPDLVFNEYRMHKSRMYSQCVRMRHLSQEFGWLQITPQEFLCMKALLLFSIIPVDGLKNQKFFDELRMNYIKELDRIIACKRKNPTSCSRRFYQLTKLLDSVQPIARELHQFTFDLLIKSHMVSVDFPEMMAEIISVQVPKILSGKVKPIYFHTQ

T1 sequence (Q13501 whole entry, the tested form may be a part): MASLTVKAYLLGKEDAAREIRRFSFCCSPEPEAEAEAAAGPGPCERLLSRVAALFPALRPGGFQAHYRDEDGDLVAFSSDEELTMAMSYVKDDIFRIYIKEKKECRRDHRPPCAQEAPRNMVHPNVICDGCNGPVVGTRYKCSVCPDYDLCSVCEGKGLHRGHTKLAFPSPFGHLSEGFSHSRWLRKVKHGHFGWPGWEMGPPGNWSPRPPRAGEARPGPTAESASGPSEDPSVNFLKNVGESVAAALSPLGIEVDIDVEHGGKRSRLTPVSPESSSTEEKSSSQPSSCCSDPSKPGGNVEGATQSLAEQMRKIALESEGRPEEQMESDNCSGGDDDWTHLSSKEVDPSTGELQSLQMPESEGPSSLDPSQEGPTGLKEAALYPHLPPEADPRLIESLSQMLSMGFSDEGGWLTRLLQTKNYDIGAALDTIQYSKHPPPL
Chain of E3 ubiquitin-protein ligase RNF168 (Q8IYW5 whole entry): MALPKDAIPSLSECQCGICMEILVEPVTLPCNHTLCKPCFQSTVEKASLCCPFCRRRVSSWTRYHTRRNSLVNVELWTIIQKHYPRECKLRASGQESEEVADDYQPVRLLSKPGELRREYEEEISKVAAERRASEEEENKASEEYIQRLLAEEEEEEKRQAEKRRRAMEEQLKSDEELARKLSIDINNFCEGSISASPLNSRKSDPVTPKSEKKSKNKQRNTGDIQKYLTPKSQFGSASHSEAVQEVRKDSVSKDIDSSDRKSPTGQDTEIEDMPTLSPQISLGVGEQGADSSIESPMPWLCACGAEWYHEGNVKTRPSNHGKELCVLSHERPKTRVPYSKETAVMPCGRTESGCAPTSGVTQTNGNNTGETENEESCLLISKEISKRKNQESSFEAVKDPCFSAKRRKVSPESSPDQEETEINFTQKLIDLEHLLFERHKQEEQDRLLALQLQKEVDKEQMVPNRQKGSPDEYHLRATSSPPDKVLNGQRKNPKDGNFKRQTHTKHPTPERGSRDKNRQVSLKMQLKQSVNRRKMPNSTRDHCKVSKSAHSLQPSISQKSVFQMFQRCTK

COc1cc(-n2cc(-c3ccc4nc(N)nc(N)c4c3)nn2)cc(OC)c1OC
IC50 [1]: 0.36 µM | IC50 [2]: 1.93 µM | IC50 [3]: 2.48 µM | IC50 [4]: 19.6 µM | IC50 [5]: 2.79 µM | IC50 [6]: 1.17 µM | IC50 at 72 h [7]: 6.98 µM | Activity [8]: 24.42% | Activity [9]: 18.77% | inhibition [10]: Dde | inhibition [11]: Dde | half-life [12]: 31 h | half-life [13]: 22.1 h | Cmax [14]: 26.1 ng/mL | Cmax [15]: 52.2 ng/mL | AUC(0-t) [16]: 215 ng·h/mL | AUC(0-t) [17]: 408 ng·h/mL | CLH [18]: 1.87 mL/min | Activity [19]: Non-Toxic | MTD [20]: 50 mg/kg | Activity [21]: Toxic | Activity [22]: Toxic | MTD [23]: 12.5 mg/kg | Activity [24]: Active | Kd [25]: 1.49 µM | Activity [26]: Active | Activity [27]: Active | Activity [28]: Active | Activity [29]: Active | Kd [30]: 0.89 µM | inhibition [31]: Active | Activity [32]: Active | Activity [33]: Active | inhibition [34]: Active
